# Laboratory results as given in US9694016B2 (Novartis AG, priority 2013, dated 2017).
# Molecular target: b-Raf (V600E) (Homo sapiens (Human), UniProt P15056, V600E)
# Settings: read-out: b-Raf IC-50; AlphaScreen, 60 min pre-incubation, 3 hours reaction
# Chain of b-Raf (V600E) (P15056 whole entry V600E): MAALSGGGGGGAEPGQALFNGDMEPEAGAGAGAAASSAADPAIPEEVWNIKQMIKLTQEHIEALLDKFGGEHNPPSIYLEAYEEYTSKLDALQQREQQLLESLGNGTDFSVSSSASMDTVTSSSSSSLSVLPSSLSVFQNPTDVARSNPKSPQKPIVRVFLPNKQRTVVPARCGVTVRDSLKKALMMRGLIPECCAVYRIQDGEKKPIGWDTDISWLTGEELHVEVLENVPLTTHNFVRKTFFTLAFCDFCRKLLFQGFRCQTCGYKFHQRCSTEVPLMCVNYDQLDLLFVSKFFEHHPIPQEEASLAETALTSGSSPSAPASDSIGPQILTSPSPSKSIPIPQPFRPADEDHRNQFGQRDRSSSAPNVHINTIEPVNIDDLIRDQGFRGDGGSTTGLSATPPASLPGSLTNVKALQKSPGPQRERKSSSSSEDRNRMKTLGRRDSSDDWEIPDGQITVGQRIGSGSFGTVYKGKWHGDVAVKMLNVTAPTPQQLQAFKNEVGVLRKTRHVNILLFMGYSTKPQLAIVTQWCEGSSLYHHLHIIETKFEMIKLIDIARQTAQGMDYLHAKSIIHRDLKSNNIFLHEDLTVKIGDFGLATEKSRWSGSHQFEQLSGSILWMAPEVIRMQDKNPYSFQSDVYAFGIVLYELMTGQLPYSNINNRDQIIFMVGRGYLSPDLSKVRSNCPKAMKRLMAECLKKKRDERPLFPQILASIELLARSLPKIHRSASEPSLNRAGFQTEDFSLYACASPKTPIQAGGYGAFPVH
row,SMILES,IC50
1,"Cc1ccc(NC(=O)c2ccnc(C(F)(F)F)c2)cc1-c1cc(N2CCOCC2)nc(N2CC(O)C2)n1 [Example 773, N-(3-(2-(3-hydroxyazetidin-1-yl)-6-morpholinopyrimidin-4-yl)-4-methylphenyl)-2-(trifluoromethyl)isonicotinamide]",1.7 nM
2,"Cc1ncc(NC(=O)c2cccc(C(F)(F)F)c2)cc1-c1cc(N2CCOCC2)nc(N2CCNCC2)n1 [Example 775, N-(6-methyl-5-(6-morpholino-2-(piperazin-1-yl)pyrimidin-4-yl)pyridin-3-yl)-3-(trifluoromethyl)benzamide]",20 nM
3,"Cc1ncc(NC(=O)c2cccc(C(F)(F)F)c2)cc1-c1cc(N2CCOCC2)nc(OC2CNC2)n1 [Example 776, N-(5-(2-(azetidin-3-yloxy)-6-morpholinopyrimidin-4-yl)-6-methylpyridin-3-yl)-3-(trifluoromethyl)benzamide]",25000 nM
4,"Cc1ccc(NC(=O)c2ccnc(C(C)C)c2)cc1-c1cc(N2CCOCC2)nc(OC2CNC2)n1 [Example 778, N-(3-(2-(azetidin-3-yloxy)-6-morpholinopyrimidin-4-yl)-4-methylphenyl)-2-isopropylisonicotinamide]",2.3 nM
5,"Cc1ccc(NC(=O)c2ccnc(C(C)(F)F)c2)cc1-c1cc(N2CCOCC2)nc(OC2CNC2)n1 [Example 779, N-(3-(2-(azetidin-3-yloxy)-6-morpholinopyrimidin-4-yl)-4-methylphenyl)-2-(1,1-difluoroethyl)isonicotinamide]",2.2 nM
6,"Cc1ccc(NC(=O)c2ccnc(C(F)(F)F)c2)cc1-c1cc(N2CCOCC2)nc(OC2CNC2)n1 [Example 780, N-(3-(2-(azetidin-3-yloxy)-6-morpholinopyrimidin-4-yl)-4-methylphenyl)-2-(trifluoromethyl)isonicotinamide]",2.1 nM
7,"Cc1ncc(NC(=O)c2cccc(C(F)(F)F)c2)cc1-c1cc(N2CCOCC2)nc(N2C(=O)OC[C@@H]2C)n1 [Example 781, (S)—N-(6-methyl-5-(2-(4-methyl-2-oxooxazolidin-3-yl)-6-morpholinopyrimidin-4-yl)pyridin-3-yl)-3-(trifluoromethyl)benzamide]",10.8 nM
8,"Cc1ccc(NC(=O)c2ccnc(C(C)(C)C#N)c2)cc1-c1cc(N2CCOCC2)nc(N2C(=O)OC[C@@H]2C)n1 [Example 782, (S)-2-(2-cyanopropan-2-yl)-N-(4-methyl-3-(2-(4-methyl-2-oxooxazolidin-3-yl)-6-morpholinopyrimidin-4-yl)phenyl)isonicotinamide]",22.3 nM
9,"Cc1ccc(NC(=O)c2cccc(C(F)(F)F)c2)cc1-c1cc(N2CCOCC2)nc(N2C(=O)OC[C@@H]2C)n1 [Example 783, (S)—N-(4-methyl-3-(2-(4-methyl-2-oxooxazolidin-3-yl)-6-morpholinopyrimidin-4-yl)phenyl)-3-(trifluoromethyl)benzamide]",6.3 nM
10,"Cc1ncc(NC(=O)c2ccnc(C(C)(C)C#N)c2)cc1-c1cc(N2CCOCC2)nc(N2C(=O)OC[C@@H]2C)n1 [Example 784, (S)-2-(2-cyanopropan-2-yl)-N-(6-methyl-5-(2-(4-methyl-2-oxooxazolidin-3-yl)-6-morpholinopyrimidin-4-yl)pyridin-3-yl)isonicotinamide]",200 nM
11,"Cc1ccc(NC(=O)c2ccnc(C(F)F)c2)cc1-c1cc(N2CCOCC2)nc(N2C(=O)OC[C@@H]2C)n1 [Example 785, (S)-2-(difluoromethyl)-N-(4-methyl-3-(2-(4-methyl-2-oxooxazolidin-3-yl)-6-morpholinopyrimidin-4-yl)phenyl)isonicotinamide]",7.5 nM
12,"Cc1ccc(NC(=O)c2ccnc(C(C)(C)C#N)c2)cc1-c1cc(N2CCOCC2)nc(NC2CNC2)n1 [Example 786, N-(3-(2-(azetidin-3-ylamino)-6-morpholinopyrimidin-4-yl)-4-methylphenyl)-2-(2-cyanopropan-2-yl)isonicotinamide]",14.9 nM
13,"Cc1ncc(NC(=O)c2cccc(C(F)(F)F)c2)cc1-c1cc(N2CCOCC2)nc(NC2CNC2)n1 [Example 787, N-(5-(2-(azetidin-3-ylamino)-6-morpholinopyrimidin-4-yl)-6-methylpyridin-3-yl)-3-(trifluoromethyl)benzamide]",5.5 nM
14,"Cc1ncc(NC(=O)c2cccc(C(F)(F)F)c2)cc1-c1cc(N2CCOCC2)nc(C(C)(C)O)n1 [Example 788, N-(5-(2-(2-hydroxypropan-2-yl)-6-morpholinopyrimidin-4-yl)-6-methylpyridin-3-yl)-3-(trifluoromethyl)benzamide]",200 nM
15,"Cc1ncc(NC(=O)c2ccnc(C(C)(C)F)c2)cc1-c1cc(N2CCOCC2)n2nccc2n1 [Example 790, 2-(2-fluoropropan-2-yl)-N-(6-methyl-5-(7-morpholinopyrazolo[1,5-a]pyrimidin-5-yl)pyridin-3-yl)isonicotinamide]",3.5 nM
16,"Cc1ncc(NC(=O)c2ccnc(C(C)(C)C#N)c2)cc1-c1cc(N2CCOCC2)n2nccc2n1 [Example 791, 2-(2-cyanopropan-2-yl)-N-(6-methyl-5-(7-morpholinopyrazolo[1,5-a]pyrimidin-5-yl)pyridin-3-yl)isonicotinamide]",11.4 nM
17,"Cc1ccc(NC(=O)c2ccnc(C(C)(C)C#N)c2)cc1-c1cc(N2CCOCC2)n2nccc2n1 [Example 792, 2(2-cyanopropan-2-yl)-N-(4-methyl-3(7-morpholinopyrazolo[1,5-a]pyrimidin-5-yl)phenyl)isonicotinamide]",1.7 nM

row,SMILES,IC50
1,Cc1ncc(NC(=O)c2cccc(C(F)(F)F)c2)cc1-c1cc(N2CCOCC2)n2nccc2n1 [Example 793],1.3 nM
2,"Cc1ccc(NC(=O)c2ccnc(C(C)(C)O)c2)cc1-c1cc(N2CCOCC2)n2nccc2n1 [Example 794, 2-(2-hydroxypropan-2-yl)-N-(4-methyl-3-(7-morpholinopyrazolo[1,5-a]pyrimidin-5-yl)phenyl)isonicotinamide]",2.6 nM
3,"Cc1ccc(NC(=O)c2cnnc(C(C)(C)C#N)c2)cc1-c1cc(N2CCOCC2)n2nccc2n1 [Example 795, 6-(2-cyanopropan-2-yl)-N-(4-methyl-3-(7-morpholinopyrazolo[1,5-a]pyrimidin-5-yl)phenyl)pyridazine-4-carboxamide]",1.8 nM
4,"Cc1ccc(NC(=O)c2ccnc(C3(C#N)CC3)c2)cc1-c1cc(N2CCOCC2)n2nccc2n1 [Example 796, 2-(1-cyanocyclopropyl)-N-(4-methyl-3-(7-morpholinopyrazolo[1,5-a]pyrimidin-5-yl)phenyl)isonicotinamide]",0.7 nM
5,"Cc1ncc(NC(=O)c2ccnc(C(C)(C)O)c2)cc1-c1cc(N2CCOCC2)n2nccc2n1 [Example 797, 2-(2-hydroxypropan-2-yl)-N-(6-methyl-5-(7-morpholinopyrazolo[1,5-a]pyrimidin-5-yl)pyridin-3-yl)isonicotinamide]",24.7 nM
6,"Cc1ncc(NC(=O)c2ccnc(C(F)(F)F)c2)cc1-c1cc(N2CCOCC2)n2nccc2n1 [Example 798, N-(6-methyl-5-(7-morpholinopyrazolo[1,5-a]pyrimidin-5-yl)pyridin-3-yl)-2-(trifluoromethyl)isonicotinamide]",1.1 nM
7,"Cc1ncc(NC(=O)c2ccnc(C(C)(F)F)c2)cc1-c1cc(N2CCOCC2)n2nccc2n1 [Example 799, 2-(1,1-difluoroethyl)-N-(6-methyl-5-(7-morpholinopyrazolo[1,5-a]pyrimidin-5-yl)pyridin-3-yl)isonicotinamide]",1.5 nM
8,"CCC(F)(F)c1cc(C(=O)Nc2cnc(C)c(-c3cc(N4CCOCC4)n4nccc4n3)c2)ccn1 [Example 800, 2-(1,1-difluoropropyl)-N-(6-methyl-5-(7-morpholinopyrazolo[1,5-a]pyrimidin-5-yl)pyridin-3-yl)isonicotinamide]",2 nM
9,"Cc1ncc(NC(=O)c2cnnc(C(F)(F)F)c2)cc1-c1cc(N2CCOCC2)n2nccc2n1 [Example 801, N-(6-methyl-5-(7-morpholinopyrazolo[1,5-a]pyrimidin-5-yl)pyridin-3-yl)-6-(trifluoromethyl)pyridazine-4-carboxamide]",3 nM
10,"Cc1ncc(NC(=O)c2ccnc(C3(C#N)CC3)c2)cc1-c1cc(N2CCOCC2)n2nccc2n1 [Example 802, 2-(1-cyanocyclopropyl)-N-(6-methyl-5-(7-morpholinopyrazolo[1,5-a]pyrimidin-5-yl)pyridin-3-yl)isonicotinamide]",3.1 nM
11,"Cc1ncc(NC(=O)c2ccnc(C(F)F)c2)cc1-c1cc(N2CCOCC2)n2nccc2n1 [Example 803, 2-(difluoromethyl)-N-(6-methyl-5-(7-morpholinopyrazolo[1,5-a]pyrimidin-5-yl)pyridin-3-yl)isonicotinamide]",1.9 nM
12,"Cc1ncc(NC(=O)c2cccc(C(F)F)c2)cc1-c1cc(N2CCOCC2)n2nccc2n1 [Example 804, 3-(difluoromethyl)-N-(6-methyl-5-(7-morpholinopyrazolo[1,5-a]pyrimidin-5-yl)pyridin-3-yl)benzamide]",0.8 nM
13,"Cc1ccc(NC(=O)c2ccnc(C(F)F)c2)cc1-c1cc(N2CCOCC2)n2nccc2n1 [Example 805, 2-(difluoromethyl)-N-(4-methyl-3-(7-morpholinopyrazolo[1,5-a]pyrimidin-5-yl)phenyl)isonicotinamide]",0.4 nM
14,Cc1ccc(NC(=O)c2ccnc(S(C)(=O)=O)c2)cc1-c1cc(N2CCOCC2)n2nccc2n1 [Example 806],1.1 nM
15,"Cc1ncc(NC(=O)c2ccnc(S(C)(=O)=O)c2)cc1-c1cc(N2CCOCC2)n2nccc2n1 [Example 807, N-(6-methyl-5-(7-morpholinopyrazolo[1,5-a]pyrimidin-5-yl)pyridin-3-yl)-2-(methylsulfonyl)isonicotinamide]",8.8 nM
16,"Cc1ncc(NC(=O)c2cc(C(F)(F)F)ccn2)cc1-c1cc(N2CCOCC2)n2nccc2n1 [Example 810, N-(6-methyl-5-(7-morpholinopyrazolo[1,5-a]pyrimidin-5-yl)pyridin-3-yl)-4-(trifluoromethyl)picolinamide]",1.4 nM
17,"Cc1ccc(NC(=O)c2cccc(C(F)(F)F)c2)cc1-c1nc(N2CCOCC2)c2sccc2n1 [Example 829, N-(4-methyl-3-(4-morpholinothieno[3,2-d]pyrimidin-2-yl)phenyl)-3-(trifluoromethyl)benzamide]",0.2 nM
